Test results: patent US6908920B2, “Pyrimidine derivatives” (AstraZeneca AB, priority 2000, dated 2005)

Target: T1, CDK2/Cyclin E (Homo sapiens, UniProt P24941)
T1 construct: made in house; host or cells: Sf21 (Spodoptera frugiperda) insect cells, baculovirus co-infection, for CDK2/cyclin E. E. coli BL21 (DE3) pLysS for the GST-Rb substrate
Assay: in vitro kinase assay, Scintillation Proximity Assay, incorporation of [γ-33-P]-ATP into GST-Rb
Type: biochemical
Conditions: in-vitro SPA kinase assay, GST-Rb substrate, read-out: CDK2 inhibitory activity IC50
Protocol: The compounds were tested in an in vitro kinase assay in 96 well format using Scintillation Proximity Assay (SPA—obtained from Amersham) for measuring incorporation of [γ-33-P]-Adenosine Triphosphate into a test substrate (GST-Retinoblastoma protein; GST-Rb). In each well was placed the compound to be tested (diluted in DMSO and water to correct concentrations) and in control wells either roscovitine as an inhibitor control or DMSO as a positive control. […]
The plates were sealed with Topseal-S plate sealers, left for two hours then spun at 2500 rpm, 1124×g., for 5 minutes. The plates were read on a Topcount for 30 seconds per well. […]
E. coli paste was resuspended in 10 ml/g of NETN buffer (50 mM Tris pH 7.5, 120 mM NaCl, 1 mM EDTA, 0.5% v/v NP-40, 1 mM PMSF, 1 ug/mnl leupeptin, 1 ug/ml aprotinin and 1 ug/ml pepstatin) and sonicated for 2×45 seconds per 100 ml homogenate. […] The final product was analysed by Sodium Dodeca Sulfate (SDS) PAGE (Polyacrylamide gel) using 8-16% Tris-Glycine gels (Novex, San Diego, USA).
The open reading frames of CDK2 and Cyclin E were isolated by reverse transcriptase-PCR using HeLa cell and activated T cell mRNA as a template and cloned into the insect expression vector pVL1393 (obtained from Invitrogen 1995 catalogue number: V1392-20). […]

CC(C)NCCCNS(=O)(=O)c1ccc(Nc2ncc(C#N)c(N3CCOCC3)n2)cc1 [Example 1, 5-Cyano-4-morpholino-2-{4-[N-(3-isopropylaminopropyl)sulphamoyl]anilino}pyrimidine]
IC50: 148 nM
